{"source": "paper PMC9898036", "about": "“VIP152 is a selective CDK9 inhibitor with pre-clinical in vitro and in vivo efficacy in chronic lymphocytic leukemia” (Leukemia, 2022)", "test_in_all_cases": "DiscoverX KINOMEscan kinase profiling (468 assays)", "assay_type_in_all_cases": "binding", "key": {"human kinome [1]": {"molecular_target": "human kinome (Homo sapiens, UniProt O14965)", "sequence (O14965 whole entry)": "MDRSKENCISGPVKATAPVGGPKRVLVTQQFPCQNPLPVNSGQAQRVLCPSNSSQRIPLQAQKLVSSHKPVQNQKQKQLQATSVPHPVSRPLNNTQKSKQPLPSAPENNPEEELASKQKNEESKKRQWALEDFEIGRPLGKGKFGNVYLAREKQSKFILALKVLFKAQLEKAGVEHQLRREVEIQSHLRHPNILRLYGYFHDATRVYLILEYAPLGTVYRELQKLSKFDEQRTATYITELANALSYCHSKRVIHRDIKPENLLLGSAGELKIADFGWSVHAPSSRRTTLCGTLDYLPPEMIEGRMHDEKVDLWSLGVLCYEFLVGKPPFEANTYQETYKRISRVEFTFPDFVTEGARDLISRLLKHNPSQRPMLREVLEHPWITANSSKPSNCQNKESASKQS", "conditions": "AURKA; 100 nM; read-out: Percent Control", "outline": "(§1)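 VIP152 was run in DMSO, alongside a DMSO control. Readout was qPCR of DNA-tagged kinase still bound to bead-immobilized biotinylated kinase ligands after compound competition.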"}, "human kinome [2]": {"molecular_target": "human kinome (Homo sapiens, UniProt O15111)", "conditions": "IKK-alpha (Entrez CHUK); 100 nM; read-out: Percent Control", "outline": "as §1"}, "human kinome [3]": {"molecular_target": "human kinome (Homo sapiens, UniProt O60285)", "conditions": "ARK5 (Entrez NUAK1); 100 nM; read-out: Percent Control", "outline": "as §1"}, "human kinome [4]": {"molecular_target": "human kinome (Homo sapiens, UniProt O75116)", "conditions": "kinase ROCK2 (Entrez ROCK2); compound concentration 1000 nM; read-out: Percent Control", "outline": "as §1"}, "human kinome [5]": {"molecular_target": "human kinome (Homo sapiens, UniProt O94768)", "conditions": "DRAK2 (Entrez STK17B); 100 nM; read-out: Percent Control", "outline": "as §1"}, "human kinome [6]": {"molecular_target": "human kinome (Homo sapiens, UniProt O95747)", "sequence (O95747 whole entry)": "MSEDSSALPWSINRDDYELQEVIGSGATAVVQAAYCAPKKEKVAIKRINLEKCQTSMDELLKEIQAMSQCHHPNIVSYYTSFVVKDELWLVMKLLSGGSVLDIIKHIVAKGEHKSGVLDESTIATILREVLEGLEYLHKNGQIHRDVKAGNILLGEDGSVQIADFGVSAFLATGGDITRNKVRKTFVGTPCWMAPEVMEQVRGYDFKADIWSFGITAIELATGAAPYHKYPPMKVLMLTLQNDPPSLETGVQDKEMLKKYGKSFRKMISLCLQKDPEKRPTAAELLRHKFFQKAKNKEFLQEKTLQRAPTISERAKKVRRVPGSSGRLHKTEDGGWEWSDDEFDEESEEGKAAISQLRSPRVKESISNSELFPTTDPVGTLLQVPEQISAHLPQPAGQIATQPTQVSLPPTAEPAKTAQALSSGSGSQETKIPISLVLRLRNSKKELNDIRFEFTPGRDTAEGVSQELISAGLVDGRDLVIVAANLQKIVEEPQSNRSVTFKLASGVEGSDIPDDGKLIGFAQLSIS", "conditions": "read-out: Percent Control", "outline": "as §1"}, "human kinome [7]": {"molecular_target": "human kinome (Homo sapiens, UniProt P07947)", "conditions": "kinase YES (Entrez YES1); compound concentration 1000 nM; read-out: Percent Control", "outline": "as §1"}, "human kinome [8]": {"molecular_target": "human kinome (Homo sapiens, UniProt P08581, M1250T)", "conditions": "MET(M1250T); 100 nM; read-out: Percent Control", "outline": "as §1"}, "human kinome [9]": {"molecular_target": "human kinome (Homo sapiens, UniProt P19525)", "sequence (P19525 whole entry)": "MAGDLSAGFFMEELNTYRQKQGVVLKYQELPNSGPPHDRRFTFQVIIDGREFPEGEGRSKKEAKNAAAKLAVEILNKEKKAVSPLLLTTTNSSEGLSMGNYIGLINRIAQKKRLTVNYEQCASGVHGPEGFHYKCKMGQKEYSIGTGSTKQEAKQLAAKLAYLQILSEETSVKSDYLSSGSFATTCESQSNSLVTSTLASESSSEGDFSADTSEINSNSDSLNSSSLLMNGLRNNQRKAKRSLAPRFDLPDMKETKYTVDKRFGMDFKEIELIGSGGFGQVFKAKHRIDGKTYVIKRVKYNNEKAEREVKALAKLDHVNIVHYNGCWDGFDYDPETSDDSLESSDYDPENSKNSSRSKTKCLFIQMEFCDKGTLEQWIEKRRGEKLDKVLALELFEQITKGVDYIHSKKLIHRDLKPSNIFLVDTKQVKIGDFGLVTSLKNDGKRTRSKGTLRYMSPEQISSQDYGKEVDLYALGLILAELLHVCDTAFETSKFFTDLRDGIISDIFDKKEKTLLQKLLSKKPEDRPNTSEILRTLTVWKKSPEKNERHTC", "conditions": "read-out: Percent Control", "outline": "as §1"}, "human kinome [10]": {"molecular_target": "human kinome (Homo sapiens, UniProt P21860)", "conditions": "ERBB3; 100 nM; read-out: Percent Control", "outline": "as §1"}, "human kinome [11]": {"molecular_target": "human kinome (Homo sapiens, UniProt P27448)", "conditions": "MARK3; 100 nM; read-out: Percent Control", "outline": "as §1"}, "human kinome [12]": {"molecular_target": "human kinome (Homo sapiens, UniProt P30530)", "conditions": "AXL; 100 nM; read-out: Percent Control", "outline": "as §1"}, "human kinome [13]": {"molecular_target": "human kinome (Homo sapiens, UniProt P36897)", "sequence (P36897 34-503)": "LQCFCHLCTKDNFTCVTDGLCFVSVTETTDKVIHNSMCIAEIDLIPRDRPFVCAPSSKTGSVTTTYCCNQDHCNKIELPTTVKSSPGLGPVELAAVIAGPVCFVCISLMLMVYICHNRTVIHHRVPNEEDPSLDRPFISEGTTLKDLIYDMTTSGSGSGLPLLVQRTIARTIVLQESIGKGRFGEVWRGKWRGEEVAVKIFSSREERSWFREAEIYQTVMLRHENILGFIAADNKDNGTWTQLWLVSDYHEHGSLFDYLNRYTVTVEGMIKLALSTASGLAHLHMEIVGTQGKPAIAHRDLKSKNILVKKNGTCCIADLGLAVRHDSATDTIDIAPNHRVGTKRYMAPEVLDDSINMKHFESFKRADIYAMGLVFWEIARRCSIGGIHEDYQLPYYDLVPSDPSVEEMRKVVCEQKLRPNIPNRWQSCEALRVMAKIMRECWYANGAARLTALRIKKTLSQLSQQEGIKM", "conditions": "kinase TGFBR1 (Entrez TGFBR1); compound concentration 1000 nM; read-out: Percent Control", "outline": "as §1"}, "human kinome [14]": {"molecular_target": "human kinome (Homo sapiens, UniProt P37023)", "conditions": "ACVRL1; 100 nM; read-out: Percent Control", "outline": "as §1"}, "human kinome [15]": {"molecular_target": "human kinome (Homo sapiens, UniProt P48729)", "conditions": "CSNK1A1; 100 nM; read-out: Percent Control", "outline": "as §1"}, "human kinome [16]": {"molecular_target": "human kinome (Homo sapiens, UniProt P51957)", "sequence (P51957 whole entry)": "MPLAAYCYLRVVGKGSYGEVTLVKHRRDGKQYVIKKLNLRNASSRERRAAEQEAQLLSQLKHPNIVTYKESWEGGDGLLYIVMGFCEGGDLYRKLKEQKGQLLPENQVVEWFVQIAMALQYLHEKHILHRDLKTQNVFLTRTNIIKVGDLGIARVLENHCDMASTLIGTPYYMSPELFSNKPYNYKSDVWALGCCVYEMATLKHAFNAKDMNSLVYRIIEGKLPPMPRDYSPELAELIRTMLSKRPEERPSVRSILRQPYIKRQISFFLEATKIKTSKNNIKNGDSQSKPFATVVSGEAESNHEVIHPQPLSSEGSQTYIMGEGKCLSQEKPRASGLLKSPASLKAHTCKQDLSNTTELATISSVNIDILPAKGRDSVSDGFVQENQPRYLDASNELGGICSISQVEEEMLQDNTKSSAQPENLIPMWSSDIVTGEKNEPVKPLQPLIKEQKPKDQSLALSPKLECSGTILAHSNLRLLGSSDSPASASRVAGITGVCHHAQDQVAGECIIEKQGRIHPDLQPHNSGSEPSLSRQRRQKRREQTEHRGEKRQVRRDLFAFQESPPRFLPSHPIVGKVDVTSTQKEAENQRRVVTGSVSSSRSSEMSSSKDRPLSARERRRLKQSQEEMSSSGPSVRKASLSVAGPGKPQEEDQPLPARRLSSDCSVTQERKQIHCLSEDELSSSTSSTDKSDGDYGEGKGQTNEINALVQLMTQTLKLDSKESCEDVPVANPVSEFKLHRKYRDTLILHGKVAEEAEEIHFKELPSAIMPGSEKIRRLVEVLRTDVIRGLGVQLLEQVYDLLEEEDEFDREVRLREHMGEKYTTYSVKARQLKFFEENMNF", "conditions": "read-out: Percent Control", "outline": "as §1"}, "human kinome [17]": {"molecular_target": "human kinome (Homo sapiens, UniProt P80192)", "conditions": "MLK1 (Entrez MAP3K9); 100 nM; read-out: Percent Control", "outline": "as §1"}, "human kinome [18]": {"molecular_target": "human kinome (Homo sapiens, UniProt Q02763)", "conditions": "kinase TIE2 (Entrez TEK); compound concentration 1000 nM; read-out: Percent Control", "outline": "as §1"}, "human kinome [19]": {"molecular_target": "human kinome (Homo sapiens, UniProt Q05397)", "conditions": "FAK (Entrez PTK2); 100 nM; read-out: Percent Control", "outline": "as §1"}, "human kinome [20]": {"molecular_target": "human kinome (Homo sapiens, UniProt Q13523)", "sequence (Q13523 whole entry)": "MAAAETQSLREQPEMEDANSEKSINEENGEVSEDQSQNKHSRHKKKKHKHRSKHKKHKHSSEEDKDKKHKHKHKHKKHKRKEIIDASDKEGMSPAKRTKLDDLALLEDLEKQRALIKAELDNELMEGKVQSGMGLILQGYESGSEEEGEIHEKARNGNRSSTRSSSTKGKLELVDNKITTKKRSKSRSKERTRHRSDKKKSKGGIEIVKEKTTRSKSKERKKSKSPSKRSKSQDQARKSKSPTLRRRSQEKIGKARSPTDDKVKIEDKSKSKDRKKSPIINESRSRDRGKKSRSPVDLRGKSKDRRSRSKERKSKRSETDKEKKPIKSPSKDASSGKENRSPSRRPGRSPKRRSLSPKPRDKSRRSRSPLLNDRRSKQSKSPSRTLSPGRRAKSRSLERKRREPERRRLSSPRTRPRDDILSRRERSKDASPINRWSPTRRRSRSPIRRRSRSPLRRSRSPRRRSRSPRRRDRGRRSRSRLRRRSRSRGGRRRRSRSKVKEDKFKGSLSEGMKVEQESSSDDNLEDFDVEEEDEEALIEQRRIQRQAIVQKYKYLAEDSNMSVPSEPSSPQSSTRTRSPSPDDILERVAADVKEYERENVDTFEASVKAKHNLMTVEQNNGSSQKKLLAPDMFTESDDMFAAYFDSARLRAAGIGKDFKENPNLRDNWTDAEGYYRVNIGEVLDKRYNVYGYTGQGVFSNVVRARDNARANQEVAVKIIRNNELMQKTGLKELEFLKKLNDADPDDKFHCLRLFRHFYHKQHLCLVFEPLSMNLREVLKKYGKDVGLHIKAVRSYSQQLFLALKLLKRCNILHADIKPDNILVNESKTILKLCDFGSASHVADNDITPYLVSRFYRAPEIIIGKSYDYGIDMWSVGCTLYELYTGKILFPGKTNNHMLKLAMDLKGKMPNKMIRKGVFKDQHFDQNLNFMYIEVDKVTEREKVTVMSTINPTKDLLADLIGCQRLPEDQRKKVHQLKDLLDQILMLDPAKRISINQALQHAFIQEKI", "conditions": "read-out: Percent Control", "outline": "as §1"}, "human kinome [21]": {"molecular_target": "human kinome (Homo sapiens, UniProt Q13976)", "sequence (Q13976 whole entry)": "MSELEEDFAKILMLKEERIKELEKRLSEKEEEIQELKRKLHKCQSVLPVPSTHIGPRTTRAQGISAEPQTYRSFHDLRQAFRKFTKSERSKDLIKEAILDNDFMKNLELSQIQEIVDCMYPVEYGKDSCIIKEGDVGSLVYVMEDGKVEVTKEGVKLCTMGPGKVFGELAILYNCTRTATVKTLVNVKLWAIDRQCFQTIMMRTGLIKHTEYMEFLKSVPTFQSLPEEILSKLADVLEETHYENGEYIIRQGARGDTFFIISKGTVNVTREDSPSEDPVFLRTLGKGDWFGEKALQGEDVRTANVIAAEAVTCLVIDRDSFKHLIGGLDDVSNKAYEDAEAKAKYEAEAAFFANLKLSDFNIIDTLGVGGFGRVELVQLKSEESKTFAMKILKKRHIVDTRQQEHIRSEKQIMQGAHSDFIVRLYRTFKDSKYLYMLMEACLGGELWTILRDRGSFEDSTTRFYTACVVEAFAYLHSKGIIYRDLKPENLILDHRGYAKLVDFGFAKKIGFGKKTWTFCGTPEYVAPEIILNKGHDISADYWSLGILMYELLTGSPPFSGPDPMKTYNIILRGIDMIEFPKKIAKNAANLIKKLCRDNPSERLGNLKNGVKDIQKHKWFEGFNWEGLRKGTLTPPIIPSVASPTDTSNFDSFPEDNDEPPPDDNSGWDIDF", "conditions": "read-out: Percent Control", "outline": "as §1"}, "human kinome [22]": {"molecular_target": "human kinome (Homo sapiens, UniProt Q6P2M8)", "conditions": "CAMK1B (Entrez PNCK); 100 nM; read-out: Percent Control", "outline": "as §1"}, "human kinome [23]": {"molecular_target": "human kinome (Homo sapiens, UniProt Q8TD08)", "conditions": "ERK8 (Entrez MAPK15); 100 nM; read-out: Percent Control", "outline": "as §1"}, "human kinome [24]": {"molecular_target": "human kinome (Homo sapiens, UniProt Q96PN8)", "conditions": "kinase TSSK3 (Entrez TSSK3); compound concentration 1000 nM; read-out: Percent Control", "outline": "as §1"}, "human kinome [25]": {"molecular_target": "human kinome (Homo sapiens, UniProt Q9BUB5)", "conditions": "MKNK1; 100 nM; read-out: Percent Control", "outline": "as §1"}, "human kinome [26]": {"molecular_target": "human kinome (Homo sapiens, UniProt Q9H2X6)", "conditions": "HIPK2; 100 nM; read-out: Percent Control", "outline": "as §1"}, "human kinome [27]": {"molecular_target": "human kinome (Homo sapiens, UniProt Q9HBH9)", "conditions": "MKNK2; 100 nM; read-out: Percent Control", "outline": "as §1"}, "human kinome [28]": {"molecular_target": "human kinome (Homo sapiens, UniProt Q9NSY1)", "conditions": "BIKE (Entrez BMP2K); 100 nM; read-out: Percent Control", "outline": "as §1"}, "human kinome [29]": {"molecular_target": "human kinome (Homo sapiens, UniProt Q9UQB9)", "conditions": "AURKC; 100 nM; read-out: Percent Control", "outline": "as §1"}, "human kinome [30]": {"molecular_target": "human kinome (Homo sapiens, UniProt Q9Y243)", "sequence (Q9Y243 whole entry)": "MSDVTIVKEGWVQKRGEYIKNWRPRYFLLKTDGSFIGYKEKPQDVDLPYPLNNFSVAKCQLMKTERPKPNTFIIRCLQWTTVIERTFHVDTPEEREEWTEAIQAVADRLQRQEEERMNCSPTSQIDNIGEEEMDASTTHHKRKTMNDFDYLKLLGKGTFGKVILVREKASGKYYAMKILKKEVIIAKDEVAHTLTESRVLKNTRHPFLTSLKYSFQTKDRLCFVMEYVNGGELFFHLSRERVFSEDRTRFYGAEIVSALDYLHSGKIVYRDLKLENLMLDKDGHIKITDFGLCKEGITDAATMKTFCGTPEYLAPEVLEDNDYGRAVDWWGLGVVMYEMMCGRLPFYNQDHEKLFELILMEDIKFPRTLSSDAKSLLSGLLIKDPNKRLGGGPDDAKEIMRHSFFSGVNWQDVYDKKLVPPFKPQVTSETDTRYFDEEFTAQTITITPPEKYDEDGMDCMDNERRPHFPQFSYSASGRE", "conditions": "AKT3; 100 nM; read-out: Percent Control", "outline": "as §1"}}, "data": [{"compound": "COc1cc(F)ccc1-c1cc(Nc2cc(CS(C)(=N)=O)ccn2)ncc1F", "note": "(centres unmarked) [VIP152]", "values": [{"measurement": "remaining binding at 0.1 µM", "setting": "human kinome [1]", "result": 100, "unit": "%"}, {"measurement": "remaining binding at 0.1 µM", "setting": "human kinome [2]", "result": 100, "unit": "%"}, {"measurement": "remaining binding at 0.1 µM", "setting": "human kinome [3]", "result": 100, "unit": "%"}, {"measurement": "remaining binding at 1 µM", "setting": "human kinome [4]", "result": 87, "unit": "%"}, {"measurement": "remaining binding at 0.1 µM", "setting": "human kinome [5]", "result": 100, "unit": "%"}, {"measurement": "remaining binding at 0.1 µM", "setting": "human kinome [6]; OSR1 (Entrez OXSR1), 100 nM", "result": 100, "unit": "%"}, {"measurement": "remaining binding at 1 µM", "setting": "human kinome [6]; kinase OSR1 (Entrez OXSR1), compound concentration 1000 nM", "result": 100, "unit": "%"}, {"measurement": "remaining binding at 1 µM", "setting": "human kinome [7]", "result": 86, "unit": "%"}, {"measurement": "remaining binding at 0.1 µM", "setting": "human kinome [8]", "result": 92, "unit": "%"}, {"measurement": "remaining binding at 0.1 µM", "setting": "human kinome [9]; PRKR (Entrez EIF2AK2), 100 nM", "result": 100, "unit": "%"}, {"measurement": "remaining binding at 1 µM", "setting": "human kinome [9]; kinase PRKR (Entrez EIF2AK2), compound concentration 1000 nM", "result": 100, "unit": "%"}, {"measurement": "remaining binding at 0.1 µM", "setting": "human kinome [10]", "result": 100, "unit": "%"}, {"measurement": "remaining binding at 0.1 µM", "setting": "human kinome [11]", "result": 99, "unit": "%"}, {"measurement": "remaining binding at 0.1 µM", "setting": "human kinome [12]", "result": 100, "unit": "%"}, {"measurement": "remaining binding at 1 µM", "setting": "human kinome [13]", "result": 91, "unit": "%"}, {"measurement": "remaining binding at 0.1 µM", "setting": "human kinome [14]", "result": 77, "unit": "%"}, {"measurement": "remaining binding at 0.1 µM", "setting": "human kinome [15]", "result": 79, "unit": "%"}, {"measurement": "remaining binding at 0.1 µM", "setting": "human kinome [16]; NEK4, 100 nM", "result": 100, "unit": "%"}, {"measurement": "remaining binding at 1 µM", "setting": "human kinome [16]; kinase NEK4 (Entrez NEK4), compound concentration 1000 nM", "result": 100, "unit": "%"}, {"measurement": "remaining binding at 0.1 µM", "setting": "human kinome [17]", "result": 100, "unit": "%"}, {"measurement": "remaining binding at 1 µM", "setting": "human kinome [18]", "result": 86, "unit": "%"}, {"measurement": "remaining binding at 0.1 µM", "setting": "human kinome [19]", "result": 100, "unit": "%"}, {"measurement": "remaining binding at 0.1 µM", "setting": "human kinome [20]; PRP4 (Entrez PRPF4B), 100 nM", "result": 87, "unit": "%"}, {"measurement": "remaining binding at 1 µM", "setting": "human kinome [20]; kinase PRP4 (Entrez PRPF4B), compound concentration 1000 nM", "result": 71, "unit": "%"}, {"measurement": "remaining binding at 0.1 µM", "setting": "human kinome [21]; PRKG1, 100 nM", "result": 100, "unit": "%"}, {"measurement": "remaining binding at 1 µM", "setting": "human kinome [21]; kinase PRKG1 (Entrez PRKG1), compound concentration 1000 nM", "result": 91, "unit": "%"}, {"measurement": "remaining binding at 0.1 µM", "setting": "human kinome [22]", "result": 87, "unit": "%"}, {"measurement": "remaining binding at 0.1 µM", "setting": "human kinome [23]", "result": 94, "unit": "%"}, {"measurement": "remaining binding at 1 µM", "setting": "human kinome [24]", "result": 76, "unit": "%"}, {"measurement": "remaining binding at 0.1 µM", "setting": "human kinome [25]", "result": 94, "unit": "%"}, {"measurement": "remaining binding at 0.1 µM", "setting": "human kinome [26]", "result": 89, "unit": "%"}, {"measurement": "remaining binding at 0.1 µM", "setting": "human kinome [27]", "result": 95, "unit": "%"}, {"measurement": "remaining binding at 0.1 µM", "setting": "human kinome [28]", "result": 100, "unit": "%"}, {"measurement": "remaining binding at 0.1 µM", "setting": "human kinome [29]", "result": 100, "unit": "%"}, {"measurement": "remaining binding at 0.1 µM", "setting": "human kinome [30]", "result": 100, "unit": "%"}]}]}
